The source of these data is US20160289449A1, “PROTEIN-BASED BIOPLASTICS AND METHODS OF USE” (University of Georgia Research Foundation, Inc., priority 2015, published 2016).

For one experiment, the system named is bacteria. As to conditions: cited from earlier work.
Experiment [1] relates to Gram (+) specie Bacillius subtilis. In words: Drug elution and zone of inhibition study (disk susceptibility, M02-A11). It counts as cell-based, Bacillus subtilis. On the procedure: (§1) After preparation, the samples were then cut into disk-sized plastics that were applied to the surface of Mueller-Hinton agar dishes that had been already inoculated with either Gram (+) specie Bacillius subtilis or the Gram (−) specie Escherichia coli at a concentration of 1-5×10^8 cells/mL. After application, the plates were then incubated for five days 30° C., during which the zones of inhibition were measured every 24 hours to determine the change of diameter of the inhibition zone size over time. Samples were run in triplicate (n=3) for each plastic type-additive combination (as well as the LDPE plastic control samples) in order to ensure precision.
(§2) To compare the ability of plastics to elute drug and to determine the effect of the addition of LDPE into plastics, statistical analyses were performed by fitting a regression model.

The test system of experiment [2] is Gram (−) specie Escherichia coli. The experiment is described as above. It counts as cell-based. As for the experimental part: as §1, §2
Where [3] appears, read: plastics with 15% of the additive, range over plastic types.
Setting [4] is: plastics with the additive imbedded.

Regarding `OCC(O)CO` [glycerol], the “concentration required for bacteriocidial properties” value in the experiment with bacteria is “at least 28%”.

`O=C([O-])c1ccccc1.[Na+]` [sodium benzoate]: the “zone of inhibition at decreased amount of food preservative (in words)” value in experiment [1] (10% and 5% additive in the plastic) was “unable to produce a zone of inhibition”.

As to `O=NO` [sodium nitrite], the “inhibition zone after 5 days” value in experiment [2] (setting [3]) and in experiment [1] (setting [3]) was 0 mm throughout. Moreover, the “zones of inhibition on inoculated petri dishes (in words)” value in experiment [2] (setting [4]) and in experiment [1] (setting [4]) was “did not generate any zones of inhibition” throughout.
